Experimental data from PMC6571560, “Aldose Reductase, Protein Glycation Inhibitory and Antioxidant of Peruvian Medicinal Plants: The Case of Tanacetum parthenium L. and Its Constituents” (Molecules, 2019).

Experiments:
[1] = system: sorbitol accumulation in rat lens; test: Lens culture and sorbitol accumulation in rat lens; format: cell-based; conditions: compound 5 μg/mL, mean ± SD (n = 3); for Sorbitol Content (mg)/lens Wet Weight (g): rat lens cultured 6 d in 30 mM glucose; for inhibition at 5 µg/mL: rat lens cultured in 30 mM glucose
Protocol: Lenses isolated from 10-week-old Sprague-Dawley rats were cultured for 6 d in TC-199 medium that contained 15% fetal bovine serum, 100 units/mL penicillin, and 0.1 mg/mL streptomycin, under sterile conditions and an atmosphere of 5% CO2 and 95% air at 37 °C. The lenses were divided into three groups and cultured in medium containing 30 mM glucose and active compounds. Each lens was placed in a well containing 2.0 mL of medium. Sorbitol was determined by HPLC after derivatization by reaction with benzoic acid to a form of a fluorescent compound [37].

[2] = DPPH-HPLC assay; conditions: peak in TP extract after reaction with DPPH, HPLC 254 nm
Protocol: The antioxidant compounds from TP were profiled with a DPPH-HPLC assay. TP (90 µL; 10.0 mg/mL) was mixed with 540 µL of DPPH solution (0.32 mM), and the mixed solution was then incubated at 37 °C for 20 min in a dark room. The solution was then filtered through a 0.45 µm membrane filter and then subjected to HPLC analysis. The HPLC conditions were the same as those described in the HPLC analysis section.

[3] = molecular target: T1, human recombinant aldose reductase (HRAR) (Homo sapiens, UniProt P15121); test: Human recombinant aldose reductase ultrafiltration HPLC assay; format: binding; conditions: peak in TP extract (0.1 mg/mL) incubated with 3.9 μM HRAR
T1 construct: purchased Wako Pure Chemical Industries (Osaka, Japan)
Protocol: The inhibitory compounds of HRAR from TP were profiled by an AR ultrafiltration assay. Specifically, TP (at a final concentration of 0.1 mg/mL) was incubated with 0.6 M ammonium sulfate and 3.9 μM HRAR in a total volume of 300 μL at 37 °C for 30 min. Then, the incubated mixture was filtered by using a Microcon YM-10 centrifugal filter unit by centrifugation at 5167× g for 30 min at room temperature. The filtrate was subsequently analyzed by using the methods mentioned in the HPLC analysis section. A sample incubated without HRAR was used as a control. The relative binding affinity of the inhibitors from TP toward HRAR was defined as the “binding degree” (BD), which can be calculated as follows: BD (%) = (Aa − Ab)/Aa × 100, in which Aa and Ab are the peak areas of a compound without and with HRAR in the HPLC chromatograms, respectively.

[4] = system: advanced glycation end products (AGEs) formation; test: Bovine serum albumin-methylglyoxal assay for AGEs formation; format: biochemical; conditions: for IC50: table head prints no unit, μM
Protocol: BSA (50 mg/mL) was incubated with methylglyoxal (100 mM) in sodium phosphate buffer (0.1 M, pH 7.4) in the presence of various concentrations of the compounds (including a control) at 37 °C for 24 h. Then, the fluorescence intensity was measured at an excitation wavelength of 355 nm and an emission wavelength of 460 nm with a luminescence spectrometer (LS50B, Perkin–Elmer Ltd., Buckinghamshire, UK). […] All reagents and samples were sterilized by filtration through […] membrane filters.

[5] = molecular target: T2, rat lens aldose reductase (RLAR) (Rattus norvegicus, UniProt P07943); test: Rat lens aldose reductase (RLAR) inhibition, NADPH absorbance decrease at 340 nm; format: biochemical; conditions: for IC50: mean ± SEM, three independent experiments in duplicate
T2 construct: The supernatant was collected and used as the RLAR; from tissue; host or cells: lenses of Sprague-Dawley rats (homogenate supernatant)
Protocol: Crude RLAR was prepared as follows: lenses were removed from Sprague-Dawley rats (Weighing 250–280 g) and frozen at −70 °C until use. Non-cataractous transparent lenses were pooled, and a homogenate was prepared in 0.1 M phosphate-buffered saline (pH 6.2). The RLAR homogenate was then centrifuged at 10,000× gfor 20 min at 4 °C in a refrigerated centrifuge. The supernatant was collected and used as the RLAR [35]. This experiment was approved by the University of Hallym Animal Care and Use Committee (Registration Number: Hallym R2016-60). All of the procedures were conducted in accordance with the ‘Guide for Care and Use of Laboratory Animals’, published by the National Institutes of Health.
A total of 531 μL of 0.1 M potassium buffer (pH 7.0), 90 μL of NADPH solution (1.6 mM in potassium buffer), 90 μL of RLAR homogenate (6.5 U/mg), 90 μL of ammonium sulfate solution (4 M in potassium buffer), and 90 μL of DL-glyceraldehyde (25 mM in potassium buffer) were mixed with 9 μL of different concentrations of samples (1–0.1 mg/mL in dimethylsulfoxide (DMSO), Less than 1% in total mixture) in a cuvette, and the activity of RLAR was assessed spectrophotometrically by measuring the decrease in NADPH absorbance at 340 nm for 3 min using a spectrophotometer (SECOMAM, Ales Cedex, France).

[6] = DPPH radical scavenging capacity
Protocol: The DPPH radical scavenging capacity assay method of Yin et al. was used. DPPH (0.32 mM) was diluted with MeOH, and this solution (180 µL) was mixed with 30 µL of the sample at each concentration. After 20 min of incubation in a darkroom, the absorbance at 570 nm was recorded on a microplate reader (EL800 Universal Microplate reader, Bio-Tek Instruments, Winooski, VT, USA). DPPH radical scavenging activity was expressed as the percentage inhibition (%) of DPPH in the aforementioned assay system and was calculated as (1 – B/A) × 100, in which A and B are the activities of DPPH without and with the test material, respectively.

Row | Compound | HRAR binding degree (%) [3] [%] | IC50 [5] [µM] | IC50 [4] [µM] | Sorbitol Content (mg)/lens Wet Weight (g) [1] [mg/g] | inhibition at 5 µg/mL [1] [%] | DPPH PAR (%), peak area reduction [2] [%] | AGEs Inhibition (%) ([4]; 20 μg/mL) | other results
1 | O=c1c(O)c(-c2ccc(O)c(O)c2)oc2cc(O)cc(O)c12 [Quercetin, quercetin, reference compound] |  |  |  | 0.21 ± 0.02 | 85.7 ± 5.71 |  |  | inhibition at 0.5 µg/mL ([5]; 0.5 μg/mL): 23.6%; inhibition at 1 µg/mL ([5]; 1 μg/mL): 44.8%; inhibition at 10 µg/mL ([5]; 10 μg/mL): 81.3%
2 | COc1cc(/C=C/C(=O)O)ccc1O [Compound 1, ferulic acid] | 27.08 | 1.11 to 3.2 |  | 0.29 ± 0.03 | 80.3 ± 2.38 | 23.53 |  | 
3 | N=C(N)NN [Aminoguanidine, aminoguanidine, reference compound] |  |  |  |  |  |  | 20.75 | AGEs Inhibition (%) ([4]; 100 μg/mL): 39.94%; AGEs Inhibition (%) ([4]; 200 μg/mL): 75.32%; AGEs IC50 ([4]; mean ± SEM): 121.96 ± 5.10 µg/mL
4 | O=C1O[C@H]([C@@H](O)CO)C(O)=C1O [L-ascorbic acid] |  |  |  |  |  |  |  | DPPH Inhibition (%) ([6]; 3 μg/mL): 33.71%; DPPH Inhibition (%) ([6]; 7.5 μg/mL): 58.34%; DPPH Inhibition (%) ([6]; 15 μg/mL): 97.23%; DPPH IC50 ([6]; mean ± SEM): 6.02 ± 0.37 µg/mL

Second part, led by results:

Row | HRAR binding degree (%) [3] [%] | IC50 [5] [µM] | IC50 [4] [µM] | Compound | Sorbitol Content (mg)/lens Wet Weight (g) [1] [mg/g] | inhibition at 5 µg/mL [1] [%] | DPPH PAR (%), peak area reduction [2] [%] | AGEs Inhibition (%) ([4]; 20 μg/mL) | other results
5 | 26.58 | 1.11 to 3.2 |  | O=c1cc(-c2ccc(O)c(O)c2)oc2cc(O[C@@H]3O[C@H](CO)[C@@H](O)[C@H](O)[C@H]3O)cc(O)c12 [Compound 3, luteolin-7-O-glucoside] | 0.07 ± 0.01 | 95.2 ± 5.97 | 16.85 |  | AGEs inhibition potency relative to aminoguanidine (times higher) ([4]; ratio of IC50 values): 32.23 times
6 | 0 | > 28 | > 55 | COc1ccc(-c2oc3cc(O)c(OC)c(O)c3c(=O)c2OC)cc1 [Compound 7, santin] |  |  | 0 | 13.15 | IC50 ([6]; mean ± SEM): > 208 µM
7 | 15.00 | 1.11 to 3.2 | > 55 | O=c1cc(-c2ccc(O)cc2)oc2cc(O)cc(O)c12 [Compound 2, apigenin] | 0.19 ± 0.06 | 87.1 ± 2.37 | 11.28 | 8.14 | 
8 | 24.29 | 1.11 to 3.2 | > 55 | O=c1c(O)c(-c2ccc(O)cc2)oc2cc(O)cc(O)c12 [Compound 6, kaempferol] | 0.03 ± 0.00 | 98 ± 6.31 | 13.97 |  | 
9 | 38.02 |  |  | O=c1cc(-c2ccc(O)c(O)c2)oc2cc(O)cc(O)c12 [Compound 4, luteolin] | 0.12 ± 0.02 | 91.8 ± 5.23 | 29.36 |  | 
10 | 25.54 | 1.11 to 3.2 | > 55 | COc1cc2oc(-c3ccc(O)c(O)c3)c(OC)c(=O)c2c(O)c1OC [Compound 5, chrysosplenol] | 0.26 ± 0.03 | 82.3 ± 2.39 | 7.19 | 5.38 | IC50 ([6]; mean ± SEM, listed as Chrysosplenol (5)): > 250 µM
